Article doi:10.1101/2024.06.25.600598v1 (biorxiv, 2024)
Structures can show the parent of a compound that is named as a salt. Where two headings read alike, the source gives them in different places. Numbered stars: 1 amine (or outer) side, 2 acyl side, 3 side chain; on linkers, the order of the positions; unused ones are H or OH. Bridge positions count the residues as written; N and C are the ends. Square brackets hold non-standard residues; d marks the D form. Side chains are listed from the residue outwards. Peptide text beside a SMILES is read from it. * marks the point of attachment. Ethylenediamine = C(CN[*:2])N[*:1]; Hyp = O=C(O)[C@@H]1C[C@@H](O)CN1; hArg = N=C(N)NCCCC[C@H](N)C(=O)O; Phg = N[C@H](C(=O)O)c1ccccc1; CO = O=C([*:1])[*:2]; Bn = c1ccc(C*)cc1; Mpa = O=C(O)CCS

Experiments:
[1] = target: T1, fibroblast activation protein (FAP; rhFAP, SLIN-tagged hFAP) (Homo sapiens, UniProt Q12884); test: biochemical
T1 sequence (Q12884 35-760): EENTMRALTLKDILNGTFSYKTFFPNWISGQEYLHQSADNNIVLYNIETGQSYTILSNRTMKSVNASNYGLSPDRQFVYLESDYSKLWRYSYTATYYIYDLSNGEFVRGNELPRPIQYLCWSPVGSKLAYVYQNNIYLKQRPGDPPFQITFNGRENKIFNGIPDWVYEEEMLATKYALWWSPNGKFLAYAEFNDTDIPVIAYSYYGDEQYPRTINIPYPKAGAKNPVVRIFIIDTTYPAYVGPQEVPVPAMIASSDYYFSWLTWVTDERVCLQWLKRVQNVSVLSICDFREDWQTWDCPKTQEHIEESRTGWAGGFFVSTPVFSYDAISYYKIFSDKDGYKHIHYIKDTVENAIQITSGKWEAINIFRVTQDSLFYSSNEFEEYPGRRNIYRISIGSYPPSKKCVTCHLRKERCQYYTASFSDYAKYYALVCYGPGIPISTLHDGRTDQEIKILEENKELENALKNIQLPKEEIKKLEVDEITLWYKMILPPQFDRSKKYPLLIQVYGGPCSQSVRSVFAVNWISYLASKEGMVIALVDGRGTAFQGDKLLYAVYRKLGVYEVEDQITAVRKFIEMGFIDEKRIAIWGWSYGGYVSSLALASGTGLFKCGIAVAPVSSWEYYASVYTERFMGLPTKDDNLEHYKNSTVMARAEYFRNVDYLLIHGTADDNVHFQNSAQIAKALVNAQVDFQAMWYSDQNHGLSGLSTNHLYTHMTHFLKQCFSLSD

[2] = target: T1, fibroblast activation protein (FAP; rhFAP, SLIN-tagged hFAP); conditions: 2 µM; inhibitor
[3] = target: T1, fibroblast activation protein (FAP; rhFAP, SLIN-tagged hFAP); test: biochemical; remark: listed apart in the source

SMILES | Ki [1] | Relative inhibition (%), activity assay [2] | Ki [3]
CC(=C(CCOC(=O)C(C)C)SSC(CCOC(=O)C(C)C)=C(C)N(C=O)Cc1cnc(C)nc1N)N(C=O)Cc1cnc(C)nc1N (stereo in doubt) [Sulbutiamine] | 5.8 µM | 15% | –
Nc1c2ccccc2nc2ccccc12 [9-Aminoacridine] | – | – | 12.4 µM
CCN1CCN(Cc2ccc(Nc3ncc(F)c(-c4cc(F)c5nc(C)n(C(C)C)c5c4)n3)nc2)CC1 [Abemaciclib (methanesulfonate)] | 0.8 µM | 5% | –
COc1ccc(C(=O)N2CCCC2=O)cc1 [Aniracetam] | – | – | 40.4 µM
CCOc1nc2cccc(C(=O)OCc3oc(=O)oc3C)c2n1Cc1ccc(-c2ccccc2-c2noc(=O)[nH]2)cc1 [Azilsartan medoxomil] | 3.9 µM | 11% | –
CCOC(=O)OC(C)OC(=O)[C@@H]1N2C(=O)[C@@H](NC(=O)[C@H](N)c3ccccc3)[C@H]2SC1(C)C (some centres unmarked) [Bacampicillin (hydrochloride)] | – | – | 12.7 µM
O=c1cc(-c2ccccc2)oc2cc(O)c(O)c(O)c12 [Baicalein] | – | – | 36.8 µM
Cn1c(CCCC(=O)O)nc2cc(N(CCCl)CCCl)ccc21 [Bendamustine] | – | – | 25 µM
NC(=NCc1ccccc1)NC(=O)c1nc(Cl)c(N)nc1N [Benzamil (hydrochloride)] | – | – | 35.3 µM
CCCC[C@H](NC(C)=O)C(=O)N[C@H]1CC(=O)NCCCC[C@@H](C(=O)O)NC(=O)[C@H](Cc2c[nH]c3ccccc23)NC(=O)[C@H](CCCN=C(N)N)NC(=O)[C@@H](Cc2ccccc2)NC(=O)[C@H](Cc2cnc[nH]2)NC1=O [Bremelanotide (Acetate)] | – | – | 25 µM
C=CCN1C[C@H](C(=O)N(CCCN(C)C)C(=O)NCC)C[C@@H]2c3cccc4[nH]cc(c34)C[C@H]21 [Cabergoline] | – | – | 17.5 µM
CC1(C)S[C@@H]2[C@H](NC(=O)C(C(=O)Oc3ccc4c(c3)CCC4)c3ccccc3)C(=O)N2[C@H]1C(=O)O (some centres unmarked) [Carindacillin (sodium)] | – | – | 14.5 µM
O=NN(CCCl)C(=O)NCCCl [Carmustine] | – | – | 17.1 µM
CC(=O)OCC1=C(C(=O)O)N2C(=O)[C@@H](NC(=O)CSC(=NC(C)C)NC(C)C)[C@H]2SC1 [Cefathiamidine] | – | – | 23.6 µM
Cc1nnc(SCC2=C(C(=O)O)N3C(=O)[C@@H](NC(=O)Cn4cc(Cl)c(=O)c(Cl)c4)[C@H]3SC2)s1 [Cefazedone] | – | – | 25.6 µM
CO/N=C(\C(=O)N[C@@H]1C(=O)N2C(C(=O)O)=C(CSc3nnnn3C)CS[C@H]12)c1csc(N)n1 [Cefmenoxime (hydrochloride)] | – | – | 25.1 µM
NCc1ccccc1CC(=O)N[C@@H]1C(=O)N2C(C(=O)O)=C(CSc3nnnn3CC(=O)O)CS[C@H]12 [Ceforanide] | – | – | 10.7 µM
COCC1=C(C(=O)OC(C)OC(=O)OC(C)C)N2C(=O)[C@@H](NC(=O)/C(=N\OC)c3csc(N)n3)[C@H]2SC1 (some centres unmarked) [Cefpodoxime Proxetil] | – | – | 34.6 µM
NC(=O)c1cc[n+](CC2=C(C(=O)O)N3C(=O)[C@@H](NC(=O)[C@@H](c4ccccc4)S(=O)(=O)[O-])[C@H]3SC2)cc1 [Cefsulodin (sodium)] | – | – | 41.4 µM
CC(C)(O/N=C(\C(=O)N[C@@H]1C(=O)N2C(C(=O)[O-])=C(C[n+]3ccccc3)CS[C@H]12)c1csc(N)n1)C(=O)O [Ceftazidime (pentahydrate)] | – | – | 20.8 µM
CO/N=C(\C(=O)N[C@@H]1C(=O)N2C(C(=O)O)=C(CSC(=O)c3ccco3)CS[C@H]12)c1csc(N)n1 [Ceftiofur (sodium)] | – | – | 23 µM
CC(C)(C)OC(=O)N[C@H]1CCCCC/C=C\[C@@H]2C[C@@]2(C(=O)NS(=O)(=O)C2CC2)NC(=O)[C@@H]2C[C@@H](OC(=O)N3Cc4cccc(F)c4C3)CN2C1=O [Danoprevir] | – | – | 19.3 µM
CC[N+](C)(C)c1cccc(O)c1 [Edrophonium (chloride)] | – | – | 35.3 µM
CC/C=C\C/C=C\C/C=C\C/C=C\C/C=C\CCCC(=O)O [Eicosapentaenoic Acid] | – | – | 15.8 µM
N=C(N)NCCCC[C@@H]1NC(=O)CCSSC[C@@H](C(N)=O)NC(=O)[C@@H]2CCCN2C(=O)[C@H](Cc2c[nH]c3ccccc23)NC(=O)[C@H](CC(=O)O)NC(=O)CNC1=O [Eptifibatide] ([Mpa][hArg]GDWPC-NH2; disulfide 1-7) | – | – | 27.8 µM
CCOc1ccc2nc3cc(N)ccc3c(N)c2c1 [Ethacridine (lactate monohydrate)] | – | – | 14.4 µM
Cc1oc(=O)oc1COC(=O)C1=C([C@H]2CCCO2)S[C@@H]2[C@@H]([C@@H](C)O)C(=O)N12 [Faropenem daloxate] | – | – | 13.1 µM

SMILES | Ki [1] | Relative inhibition (%), activity assay [2] | Ki [3]
CCCCc1nc(C)c(CC(=S)N(C)C)c(=O)n1Cc1ccc(-c2ccccc2-c2nnn[nH]2)cc1 [Fimasartan] | – | – | 14.6 µM
Cc1c(-c2ccccc2)oc2c(C(=O)OCCN3CCCCC3)cccc2c1=O [Flavoxate (hydrochloride)] | – | – | 33.6 µM
Cc1ncc(NC(=O)c2ccc(CN3CCN(C)CC3)c(C(F)(F)F)c2)cc1Nc1nccc(-c2cccnc2)n1 [Flumatinib (mesylate)] | – | – | 12.2 µM
CCC(=O)O[C@@H](O[P@](=O)(CCCCc1ccccc1)CC(=O)N1C[C@H](C2CCCCC2)C[C@H]1C(=O)O)C(C)C [Fosinopril (sodium)] | – | – | 11.6 µM
CC(C)C[C@H](NC(=O)CNC(=O)c1cc(Cl)ccc1Cl)B1OC(=O)C(CC(=O)O)(CC(=O)O)O1 [Ixazomib citrate] | – | – | 25.1 µM
CC(C)C[C@H](NC(=O)CNC(=O)c1cc(Cl)ccc1Cl)B(O)O [Ixazomib] | – | – | 33 µM
Cc1ccc(NC(=O)C2(c3ccc4c(c3)OC(F)(F)O4)CC2)nc1-c1cccc(C(=O)O)c1 [Lumacaftor] | – | – | 10.1 µM
Cc1ccc(NC(=O)c2ccc(CN3CCN(C)CC3)cc2)cc1Nc1nc(-c2cccnc2)cs1 [Masitinib] | – | – | 43.9 µM
CCOC(=O)[C@@](C)(N)Cc1ccc(O)c(O)c1 [Methyldopate] | – | – | 29.6 µM
CN(C)c1ccc2nc3ccc(=[N+](C)C)cc-3sc2c1 [Methylene blue (trihydrate)] | – | – | 19 µM
O=C1c2c(O)ccc(O)c2C(=O)c2c(NCCNCCO)ccc(NCCNCCO)c21 [Mitoxantrone (dihydrochloride)] | – | – | 11.6 µM
COC(=O)c1ccc2c(c1)NC(=O)/C2=C(\Nc1ccc(N(C)C(=O)CN2CCN(C)CC2)cc1)c1ccccc1 [Nintedanib esylate] | – | – | 27.7 µM
NC(=O)c1cccc2cn(-c3ccc([C@@H]4CCCNC4)cc3)nc12 [Niraparib (tosylate)] | – | – | 16.3 µM
NCCCC[C@@H]1NC(=O)[C@@H](Cc2c[nH]c3ccccc23)NC(=O)[C@H](c2ccccc2)NC(=O)[C@@H]2C[C@@H](OC(=O)NCCN)CN2C(=O)[C@H](Cc2ccccc2)NC(=O)[C@H](Cc2ccc(OCc3ccccc3)cc2)NC1=O [Pasireotide (acetate)] (cyclo([Hyp]([CO-Ethylenediamine])[Phg][dW]KY(Bn)F)) | – | – | 19.9 µM
Nc1ccc2cc3ccc(N)cc3nc2c1 [Proflavine (hemisulfate)] | – | – | 26.7 µM
C=CC[N+]1([C@H]2C[C@H]3[C@@H]4CC[C@H]5C[C@H](OC(C)=O)[C@@H](N6CCCCC6)C[C@]5(C)[C@H]4CC[C@]3(C)[C@H]2OC(=O)CC)CCCCC1 [Rapacuronium bromide] | – | – | 14.1 µM
CO[C@H]1/C=C/O[C@@]2(C)Oc3c(C)c(O)c4c(O)c(c(/C=N/N5CCN(C6CCCC6)CC5)c(O)c4c3C2=O)NC(=O)/C(C)=C\C=C\[C@H](C)[C@H](O)[C@@H](C)[C@@H](O)[C@@H](C)[C@H](OC(C)=O)[C@@H]1C [Rifapentine] | – | – | 11.9 µM
CNCc1ccc(-c2[nH]c3cc(F)cc4c3c2CCNC4=O)cc1 [Rucaparib] | – | – | 44.4 µM
CC(C)=CCOc1ccc(/C=C/C(=O)c2ccc(OCC=C(C)C)cc2OCC(=O)O)cc1 [Sofalcone] | – | – | 16 µM
COc1cc(C)c2c(Oc3cccc(C(F)(F)F)c3)c(OC)cc(NC(C)CCCN)c2n1 (centres unmarked) [Tafenoquine (Succinate)] | – | – | 16.3 µM
CN1Cc2c(Cl)cc(Cl)cc2[C@H](c2cccc(S(=O)(=O)NCCOCCOCCNC(=O)NCCCCNC(=O)NCCOCCOCCNS(=O)(=O)c3cccc([C@@H]4CN(C)Cc5c(Cl)cc(Cl)cc54)c3)c2)C1 [Tenapanor] | – | – | 24.9 µM
COc1cc(NCc2ccc3nc(N)nc(N)c3c2C)cc(OC)c1OC [Trimetrexate] | – | – | 27.2 µM
CCCc1nc(C)c2c(=O)[nH]c(-c3cc(S(=O)(=O)N4CCN(CC)CC4)ccc3OCC)nn12 [Vardenafil (hydrochloride)] | – | – | 39.7 µM
CC(=O)O[C@H]1C[C@@H]2CC[C@@H]3[C@H](CC[C@@]4(C)[C@H]3C[C@H]([N+]3(C)CCCCC3)[C@@H]4OC(C)=O)[C@@]2(C)C[C@@H]1N1CCCCC1 [Vecuronium (bromide)] | – | – | 25.8 µM
CC[C@@H]1C(=O)N(C)c2cnc(Nc3ccc(C(=O)N[C@H]4CC[C@H](N5CCN(CC6CC6)CC5)CC4)cc3OC)nc2N1C(C)C [Volasertib] | – | – | 10.9 µM
COc1cc(C(=O)NS(=O)(=O)c2ccccc2C)ccc1Cc1cn(C)c2ccc(NC(=O)OC3CCCC3)cc12 [Zafirlukast] | – | – | 13.4 µM
